The source of these data is patent US8791132B2, “Compounds and methods for treatment of hypertension” (Medivation Technologies, Inc., priority 2011, dated 2014).

The inhibition is the change of the read-out against control, counted positive when it falls. Usually Ki stands for a dissociation constant, usually derived from enzyme kinetics or from competition with a known ligand.

Like-named read-outs stand apart in the source and are kept apart here.

Test [1] concerns the target T1, rat adrenergic α1B receptor (Rattus norvegicus, UniProt P15823).
T1 construct: rat adrenergic α1B receptor obtained from Wistar Rat liver; from tissue; host or cells: Wistar rat liver
T1 sequence (P15823 1-515): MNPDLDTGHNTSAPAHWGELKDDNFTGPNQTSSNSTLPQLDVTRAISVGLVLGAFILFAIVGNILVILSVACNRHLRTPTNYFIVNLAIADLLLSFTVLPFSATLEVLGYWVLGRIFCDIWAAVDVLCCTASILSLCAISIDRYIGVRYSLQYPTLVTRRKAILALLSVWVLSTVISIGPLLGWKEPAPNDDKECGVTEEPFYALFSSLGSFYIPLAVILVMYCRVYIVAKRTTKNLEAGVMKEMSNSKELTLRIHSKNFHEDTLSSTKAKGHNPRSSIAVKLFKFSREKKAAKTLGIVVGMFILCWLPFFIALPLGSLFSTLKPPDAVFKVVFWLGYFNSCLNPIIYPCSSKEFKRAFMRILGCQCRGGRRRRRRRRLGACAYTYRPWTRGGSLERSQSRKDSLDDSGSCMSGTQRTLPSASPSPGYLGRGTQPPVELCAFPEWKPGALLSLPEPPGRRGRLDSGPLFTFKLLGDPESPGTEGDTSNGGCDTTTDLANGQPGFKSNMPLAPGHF
Nature of the test: Radioligand binding, adrenergic α1B ([3H]Prazosin). As to conditions: for Percentage inhibition of ligand binding, Adrenergic α1B (0.1 μM) / Percentage inhibition of ligand binding, Adrenergic α1B: 0.1 µM. In short, it runs like this:
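Filter binding with Wistar rat liver α1B preparation: test compound plus 0.25 nM [3H]prazosin, 1 h at 25° C in modified Tris-HCl buffer pH 7.4.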

In test [2] the target is T2, human recombinant adrenergic α2A receptor (Homo sapiens, UniProt P08913).
T2 construct: expressed in transfected cells; host or cells: insect Sf9 cells
T2 sequence (P08913 1-465): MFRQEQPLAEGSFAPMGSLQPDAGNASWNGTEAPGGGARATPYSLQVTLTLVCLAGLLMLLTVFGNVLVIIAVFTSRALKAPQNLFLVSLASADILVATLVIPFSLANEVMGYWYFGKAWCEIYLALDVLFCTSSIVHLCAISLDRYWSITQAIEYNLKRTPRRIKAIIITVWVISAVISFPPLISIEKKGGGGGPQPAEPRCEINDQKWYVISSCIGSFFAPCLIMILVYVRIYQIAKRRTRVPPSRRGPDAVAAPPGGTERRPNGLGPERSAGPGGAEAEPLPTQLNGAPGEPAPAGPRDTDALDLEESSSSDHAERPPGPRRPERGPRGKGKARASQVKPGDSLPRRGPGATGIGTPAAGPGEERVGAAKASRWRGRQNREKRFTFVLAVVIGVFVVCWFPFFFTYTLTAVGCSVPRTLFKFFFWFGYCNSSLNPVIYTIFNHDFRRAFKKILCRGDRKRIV
Nature of the test: Radioligand binding, adrenergic α2A ([3H]MK-912). The note with it: for Percentage inhibition of ligand binding, Adrenergic α2A (0.1 μM) / Percentage inhibition of ligand binding, Adrenergic α2A: 0.1 µM. In a few lines: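 Sf9-expressed receptor was incubated with compound for 60 min at 25 °C in modified Tris-HCl buffer, pH 7.4. Nonspecific binding was taken as that remaining with 10 μM WB-4101.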

In test [3] the target is T3, human recombinant adrenergic α2B receptor (Homo sapiens, UniProt P18089).
T3 construct: expressed in transfected cells; host or cells: CHO-K1
T3 sequence (P18089 1-450): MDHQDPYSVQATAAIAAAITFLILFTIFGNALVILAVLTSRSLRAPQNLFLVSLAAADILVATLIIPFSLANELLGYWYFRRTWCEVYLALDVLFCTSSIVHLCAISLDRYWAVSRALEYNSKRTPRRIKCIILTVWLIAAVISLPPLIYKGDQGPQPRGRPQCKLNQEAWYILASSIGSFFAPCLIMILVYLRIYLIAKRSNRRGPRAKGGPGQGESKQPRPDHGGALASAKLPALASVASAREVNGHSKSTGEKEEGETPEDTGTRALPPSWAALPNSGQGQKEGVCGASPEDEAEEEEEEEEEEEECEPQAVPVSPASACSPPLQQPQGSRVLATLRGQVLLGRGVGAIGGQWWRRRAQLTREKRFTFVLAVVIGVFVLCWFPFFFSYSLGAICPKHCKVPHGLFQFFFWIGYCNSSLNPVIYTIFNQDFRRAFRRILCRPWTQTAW
Nature of the test: Radioligand binding, adrenergic α2B ([3H]Rauwolscine). As to conditions: for Percentage inhibition of ligand binding, Adrenergic α2B (0.03 μM) / Percentage inhibition of ligand binding, Adrenergic α2B: 0.03 µM. In short, it runs like this:
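Readout: percent inhibition of specific [3H]Rauwolscine binding, measured by filtration and counting. Conditions: CHO-K1 cell-expressed receptor, 2.5 nM radioligand, 60 min, 25° C, Tris-HCl pH 7.4 buffer with MgCl2, EDTA, BSA. Non-specific binding: 10 μM Prazosin.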

Setting [4] is: compound at 0.1 μM, [3H]Prazosin, repeat datapoints each shown.
Where [5] appears, read: compound at 0.1 μM, [3H]MK-912, repeat datapoints each shown.
Where [6] appears, read: compound at 0.03 μM, [3H]Rauwolscine, repeat datapoints each shown.
The mark [7] stands for this setting: compound at 0.1 μM, [3H]Prazosin, repeat assays, each datapoint shown.
[8] abbreviates: compound at 0.1 μM, [3H]MK-912, repeat assays, each datapoint shown.
The mark [9] stands for this setting: compound at 0.03 μM, [3H]Rauwolscine, repeat assays, each datapoint shown.
Setting [10] is: 0.1 μM compound, read-out: Percentage inhibition of ligand binding, Adrenergic α1B.
Where [11] appears, read: 0.1 μM compound, read-out: Percentage inhibition of ligand binding, Adrenergic α2A.
Setting [12] is: 0.03 μM compound, read-out: Percentage inhibition of ligand binding, Adrenergic α2B.
The mark [13] stands for this setting: read-out: Percentage inhibition of ligand binding, Adrenergic α2A (0.1 μM), compound at 0.1 μM, [3H]MK-912, repeat datapoints each shown.

Turning to `CN1CCc2c(c3cc(Cl)cnc3n2CC(C)(O)c2ccc(C(F)(F)F)nc2)C1` (single isomer, unassigned) [II-109b], in test [1] (setting [4]), the “Percentage inhibition of ligand binding, Adrenergic α1B (0.1 μM)” value is 5%. Further, the “Percentage inhibition of ligand binding, Adrenergic α2A (0.1 μM)” value in test [2] (setting [5]) is given as −10%. In addition, the “Percentage inhibition of ligand binding, Adrenergic α2B (0.03 μM)” value (from here on “Percentage inhibition … (0.03 μM)”) in test [3] (setting [6]) is on record as 2%.
For `Cc1ccc2c(c1)c1c(n2CC(O)c2ccc(F)cc2)CN(C)CC1` (single isomer, unassigned) [18b, 2-(2,6-dimethyl-1,2,3,4-tetrahydro-β-carbolin-9-yl)-1-(4-fluoro-phenyl)-ethanol], in test [1] (setting [7]), the “Percentage inhibition of ligand binding, Adrenergic α1B” value came out at 87%. Besides, in test [2] (setting [8]), the “Percentage inhibition of ligand binding, Adrenergic α2A” value is reported as 32%. Moreover, in test [3] (setting [9]), the “Percentage inhibition of ligand binding, Adrenergic α2B” value stood at 61%.
Consider `CC1Cc2c(c3cc(Cl)ccc3n2CC(C)(O)c2cccnc2)CN1C` (single isomer, unassigned) [II-147a, 1-(8-chloro-2,3-dimethyl-3,4-dihydro-1H-pyrido[4,3-b]indol-5(2H)-yl)-2-(pyridin-3-yl)propan-2-ol], for which, in test [1] (setting [4]), the “Percentage inhibition of ligand binding, Adrenergic α1B (0.1 μM)” value was determined as 32%. In test [2] (setting [5]), the “Percentage inhibition of ligand binding, Adrenergic α2A (0.1 μM)” value is reported as 57%. In test [3] (setting [6]), the “Percentage inhibition … (0.03 μM)” value was 102%.
Regarding `CN1C2CCC1c1c(n(CC(O)c3ccncc3)c3ccc(Cl)cc13)C2` (stereo not drawn) [II-66], the inhibition at 0.1 µM in test [1] (setting [10]) is 27%; in test [2] (setting [11]) it was 0%. The inhibition at 0.03 µM in test [3] (setting [12]) came out at 46%.
As to `Cc1ccc2c(c1)c1c(n2CC(O)c2ccc(F)cc2F)CCN(C)CC1` (single isomer, unassigned) [172b], in test [1] (setting [4]), the “Percentage inhibition of ligand binding, Adrenergic α1B (0.1 μM)” value is given as 92%. The “Percentage inhibition of ligand binding, Adrenergic α2A (0.1 μM)” value in test [2] (setting [5]) was 46%. Moreover, in test [3] (setting [6]), the “Percentage inhibition … (0.03 μM)” value is listed as 93%.
Regarding `Cc1ccc2c(c1)c1c(n2CC(O)c2cccnc2)CCNC1` (single isomer, unassigned) [9a, 2-(8-methyl-1,2,3,4-tetrahydro-pyrido[4,3-b]indol-5-yl)-1-pyridin-3-yl-ethanol], the “Percentage inhibition of ligand binding, Adrenergic α1B” value in test [1] (setting [7]) was determined as 11%. Also, in test [2] (setting [8]), the “Percentage inhibition of ligand binding, Adrenergic α2A” value was 4%. Besides, in test [3] (setting [9]), the “Percentage inhibition of ligand binding, Adrenergic α2B” value came to 23%.
Take `Cc1ccc2c(c1)c1c(n2CC(O)c2ccncc2)CN(C)CC1` (single isomer, unassigned) [8b]: the inhibition at 0.03 µM in test [1] (compound at 0.03 μM, [3H]Prazosin, repeat assays, each datapoint shown, read-out: Percentage inhibition of ligand binding, Adrenergic α1B) turned out to be 24%; in test [3] (compound at 0.03 μM, [3H]Rauwolscine, repeat assays, each datapoint shown, read-out: Percentage inhibition of ligand binding, Adrenergic α2B) it was 49%. Also, the “Percentage inhibition of ligand binding, Adrenergic α1B” value in test [1] (setting [7]) amounted to 63%. In addition, the inhibition at 0.1 µM in test [1] (compound at 0.1 μM, [3H]Prazosin, repeat assays, each datapoint shown, read-out: Percentage inhibition of ligand binding, Adrenergic α1B) came to 61%; in test [2] (compound at 0.1 μM, [3H]MK-912, repeat assays, each datapoint shown, read-out: Percentage inhibition of ligand binding, Adrenergic α2A), 8%; in test [3] (compound at 0.1 μM, [3H]Rauwolscine, repeat assays, each datapoint shown, read-out: Percentage inhibition of ligand binding, Adrenergic α2B) it was 78%. For the same molecule, the Ki is 2100 nM in test [2] and 11.7 nM in test [3] (read-out: Ki α2B). Also, the “Percentage inhibition of ligand binding, Adrenergic α2A” value in test [2] (setting [8]) is listed as 12%.
Regarding `Cc1ccc2c(c1)c1c(n2CC(C)(O)c2cccnc2)C(c2ccccc2)N(C)CC1` (stereo not drawn) [II-112b, 1-(2,6-dimethyl-1-phenyl-1,2,3,4-tetrahydro-β-carbolin-9-yl)-2-pyridin-3-yl-propan-2-ol], the “Percentage inhibition of ligand binding, Adrenergic α1B (0.1 μM)” value in test [1] (setting [4]) is listed as 10%. For the same molecule, in test [2] (setting [5]), the “Percentage inhibition of ligand binding, Adrenergic α2A (0.1 μM)” value is 3%. The “Percentage inhibition … (0.03 μM)” value in test [3] (setting [6]) turned out to be 31%.
The like results for `Cc1cnc2c(c1)c1c(n2CCc2ccncc2)CCN2CCCC12` (single isomer, unassigned) [II-244a, 9-methyl-6-(2-pyridin-4-yl-ethyl)-2,3,4,5,6,10c-hexahydro-1H-3a,6,7-triaza-cyclopenta[c]fluorene] were, in that order, 95%, 22% and 102%.
For the molecule `Cc1ccc2c(c1)c1c(n2CC(C)(O)c2ccc(O)nc2)CCN(C)C1` (stereo not drawn) [II-80, 5-[2-(2,8-dimethyl-1,2,3,4-tetrahydro-pyrido[4,3-b]indol-5-yl)-1-hydroxy-1-methyl-ethyl]-pyridin-2-ol], the inhibition at 0.1 µM in test [1] (setting [10]) was determined as 4%; in test [2] (setting [11]), 3%. The inhibition at 0.03 µM in test [3] (setting [12]) was found to be 9%.
In the case of `Cc1cnc2c(c1)c1c(n2CC(O)c2ccc(F)cc2)CCN(C)C1` (single isomer, unassigned) [136a], the “Percentage inhibition of ligand binding, Adrenergic α1B (0.1 μM)” value in test [1] (setting [4]) is 54%. Moreover, in test [2] (setting [13]), the inhibition at 0.1 µM is 16%. In test [3] (setting [6]), the “Percentage inhibition … (0.03 μM)” value came to 34%.
Consider `Cc1ccc2c(c1)c1c(n2CC(O)c2ccc(C(N)=O)cc2)CCN(C)C1` (single isomer, unassigned) [139b, 4-[2-(2,8-dimethyl-1,2,3,4-tetrahydro-pyrido[4,3-b]indol-5-yl)-1-hydroxy-ethyl]-benzamide], for which, in test [1] (setting [4]), the “Percentage inhibition of ligand binding, Adrenergic α1B (0.1 μM)” value was found to be 11%. Moreover, the “Percentage inhibition of ligand binding, Adrenergic α2A (0.1 μM)” value in test [2] (setting [5]) came out at 6%. Also, the “Percentage inhibition … (0.03 μM)” value in test [3] (setting [6]) came out at 59%.
Regarding `Cc1cnc2c(c1)c1c(n2CC(N)c2ccncc2)CCNC1` (stereo not drawn) [compound 158], the inhibition at 0.1 µM in test [1] (read-out: Percentage inhibition of ligand binding, Adrenergic α1B (0.1 μM), compound at 0.1 μM, [3H]Prazosin, repeat datapoints each shown) was 8%; in test [2] (setting [13]), -1%. Besides, in test [3] (read-out: Percentage inhibition of ligand binding, Adrenergic α2B (0.03 μM), compound at 0.03 μM, [3H]Rauwolscine, repeat datapoints each shown), the inhibition at 0.03 µM stood at 43%.
For the molecule `CCN1CCc2c(c3cc(C)ccc3n2CC(O)c2ccc(C)cc2)C1` (single isomer, unassigned) [203a], the “Percentage inhibition of ligand binding, Adrenergic α1B (0.1 μM)” value in test [1] (setting [4]) turned out to be 76%. Further, in test [2] (setting [5]), the “Percentage inhibition of ligand binding, Adrenergic α2A (0.1 μM)” value is 71%. For the same molecule, in test [3] (setting [6]), the “Percentage inhibition … (0.03 μM)” value was 36%.
For `CC(=O)OC(C)(Cn1c2c(c3cc(C)ccc31)CN(C)CC2)c1cccnc1` (single isomer, unassigned) [II-15b, acetic acid 2-(2,8-dimethyl-1,2,3,4-tetrahydro-pyrido[4,3-b]indol-5-yl)-1-methyl-1-pyridin-3-yl-ethyl ester], the “Percentage inhibition of ligand binding, Adrenergic α1B” value in test [1] (0.1 μM compound) came to 5%. Besides, the “Percentage inhibition of ligand binding, Adrenergic α2A” value in test [2] (0.1 μM compound) came to 18%. Further, the “Percentage inhibition of ligand binding, Adrenergic α2B” value in test [3] (0.03 μM compound) stood at 40%.
